Where a name gives a salt, the structure may show the parent alone.
Test system: TetR-HP1
Assay: Orthogonal TetR-HP1 recruitment assay (BFP reporter)
Format: cell-based, mouse
Conditions: 5 μM, 48 hrs, with TetR-HP1 recruitment
From the text: The CiA:Oct4 recruitment system in mouse embryonic stem cells contains Gal4 and Zinc finger DNA binding arrays and a downstream nuclear eGFP gene in place of a single Oct4 allele as previously described (Hathaway et al., 2012). The CiA:Oct4 N118/N163 cell line containing viral integrations of N118 and N163 plasmids (N118-nLV EF-1α-Gal-FKBPx1-HA-PGK-Blast, N163-nLV EF-1α-HP1α (CS)-Frbx2(Frb+FrbWobb)-V5-PGK-Puro) was used for all experiments unless otherwise stated. The CiA:Oct4 N205 line containing the lentiviral construct N205 (N205-nLV EF-1α-ZFHD1-link-FKBP-HA <T2A> HP1αCS-Frbx2-V5-PGK-Blast) was used for shRNA experiments. CiA:Oct4 N118 was infected with the lentiviral construct N192 (N192-nLV Dual Promoter EF-1α-MCS-PGK-Puro HP1γ-(CS)-Frbx2(wobbmo)-V5) to yield the csHP1γ recruitment system CiA:Oct4 N118/N192. […]
TetR-HP1 cell lines were continuously grown with 1 μg/ml doxycycline to maintain an open chromatin state. […] Median BFP intensity was determined by FlowJo software analysis. […]

COc1cc2nc(N3CCCC3)nc(N[C@H]3CCCNC3)c2cc1OC [compound 1, (S)-6,7-Dimethoxy-N-(Piperidin-3-yl)-2-(Pyrrolidin-1-yl)Quinazolin-4-Amine Trifluoroacetic Acid Salt]
Inhibition of HP1-mediated heterochromatin formation (median BFP expression): significantly inhibit

— patent US11254654B2, “Heterochromatin gene repression inhibitors” (The University of North Carolina at Chapel Hill, priority 2017, dated 2022)
